Our source for the IC50 values is patent publication US5547972A, “Therapeutic agents useful for treating inflammatory diseases” (The Boots Company PLC, priority 1991, dated 1996).

Counter-ions that a name gives are not always drawn.

The first experiment concerns Zymosan Stimulated Macrophaqes. The experiment can be described thus: Test A: Inhibition of Arachidonic Acid Release from Zymosan Stimulated Macrophages. The class given is cell-based, mouse (female MF1). The conditions noted are these: Mus musculus, Macrophage, 5 h, inhibition of arachidonic acid release; six concentrations (100, 50, 20, 10, 5 and 1 μM); 5 h with zymosan; read-out: Test A IC50. On the procedure: Inhibition of Arachidonic Acid Release from Zymosan Stimulated Macrophaqes
Female MF1 mice (weighing 20 to 25 g) were killed using a rising concentration of CO2. The mice were laid on their backs and the abdomens wiped with 70% alcohol. The skin was pulled back, exposing the peritoneal wall. Medium A (5 ml) (see below) was injected into the peritoneal cavity of each mouse followed by approximately 1 ml of air using a 20 ml syringe and a 21 G×40 mm needle in order to form a suspension of macrophage cells. The medium and cells were then removed using a 19 G×40 mm needle. The resulting suspension was returned to a sterile beaker kept on ice. The extracts from all the mice were pooled and this pooled cell suspension was counted using a Coulter counter and adjusted to a final cell count of 1-1.3×10^6 cells/ml prior to labelling with [^3 H]-arachidonic acid. Typically five mice provided sufficient cells for each multiwell plate.
Sufficient [^3 H]-arachidonic acid in ethanol to give a final concentration of 1.6 μCi/ml (equivalent to 40 μCi/plate) was blown to dryness under nitrogen. The arachidonic acid was then resuspended in 1 or 2 ml of the cell suspension which was then mixed with the remainder of the cell suspension in a centrifuge bottle. The labelled cell suspension was then plated out into sterile plastic 96 flat-bottomed well plates (250 μl per well) and incubated overnight at 37° C. in a moist atmosphere of 5% CO2, 95% air.
The following day, non-adherent cells were removed by washing 3 times with sterile phosphate buffered saline (PBS). The adherent peritoneal macrophages were then cultured for a further 24 hours in the presence or absence of drugs, in medium B (see below) at 37° in a 5% CO2 atmosphere in order to measure the effects of drugs on the spontaneous release of arachidonic acid in the absence of stimulus. After this incubation, supernatants were removed to give media 1 and stored in sealed multi-well plates at 4° C. prior to scintillation counting. Drugs which potentiated spontaneous release of arachidonic acid (125% of controls) were deemed to be toxic at the concentration at which this phenomenon occurred. The supernatants were replaced by fresh medium C containing fresh drug and a stimulus. Three drugs were tested at six concentrations (100, 50, 20, 10, 5 and 1 μM) in replicates of four on each plate. The other wells contained controls consisting of a positive control (e.g. dexamethasone), medium (B) only and medium C only.
Incubation was then continued for a further 5 hours, whereupon the supernatants were collected to give media 2 and the adherent cells washed with PBS. The cells were then lysed with 100 μl of 0.1% TRITON® X100 in a 0.1% solution of bovine serum albumin in 0.9% saline and mechanically disrupted to give cell lysates. These supernatants (media 2) and cell lysates (Cells) were also stored in sealed multi-well plates at 4° C. prior to scintillation counting. 200 μl aliquots of media, or 100 μl aliquots of cells were counted using 2 ml of OPTIPHASE "HIGH SAFE" (Trademark of LKB) as scintillant.
The percentage of arachidonic acid released was calculated using the mean values for each group of 4 wells in the following equation. [formula] cpm=courts per minute
The value for the arachidonic acid release in the absence of stimulus (spontaneous, cpm of media 2) from cells which had been exposed to neither stimulus nor drug was subtracted from all equivalent values (cpm media 2, stimulated with or without drug) to give the net stimulated release. The percentage inhibition of arachidonic acid release caused by a drug may then be calculated using the following equation. [formula]
Compounds of formula I were tested at six concentrations (100, 50, 20, 10, 5 and 1 μM) and IC50 values calculated. Compounds with IC50 values<100 μM are considered to be active. Advantageous compounds have an IC50 value <50 μM.
Medium A (for peritoneal lavage) […]
Usually IC50 stands for the midpoint of a concentration-inhibition curve. In the case of `CC(C)(NCCCn1ccnc1)c1ccc(-c2ccccc2)cc1` [Example 81, N-[1-(4-Biphenylyl)-1-methylethyl]-3-(imidazol-1-yl)propylamine dihydrochloride], the IC50 is 14 µM.
Still for that read-out and setting: the value for `CC(NCCCn1ccnc1)c1ccc(F)cc1` (stereo not drawn) [Example 4, N-[1-(4-Fluorophenyl)ethyl]-3-(imidazol-1-yl)propylamine] was 95 µM; that for `CCc1ccc(C(C)NCCCn2ccnc2)cc1` (stereo not drawn) [Example 21, N-[1-(4-Ethylphenyl)ethyl]-3-(imidazol-1-yl)propylamine hemioxalate] was 65 µM; that for `CC(NCCCn1ccnc1)c1ccc(Cl)c(Cl)c1` (stereo not drawn) [Example 3, N-[1-(3,4-Dichlorophenyl)ethyl]-3-(imidazol-1-yl)propylamine] was 60 µM.
On the same count and under the same terms, next, `Clc1ccc(CNCCCCn2ccnc2)cc1` [Example 46, N-(4-Chlorobenzyl)-4-(imidazol-1-yl)butylamine dihydrochloride]: 86 µM; `Cc1cn(CCCNCc2ccc(Cl)cc2)c(-c2ccccc2)n1` [Example 48, N-(4-chlorobenzyl)-3-(4-methyl-2-phenylimidazol-1-yl)propylamine]: 15 µM.
`CC(NCCCn1ccnc1)c1ccc(OC(F)(F)F)cc1` (stereo not drawn) [Example 23, 3-(Imidazol-1-yl)-N-[1-(4-trifluoromethoxyphenyl)ethyl]propylamine sesquicitrate]: the IC50 worked out at 22 µM.
The same measure, in the same setting: next, `FC(F)(F)Oc1ccc(CNCCCn2ccnc2)cc1` [Example 38, 3-(Imidazol-1-yl)-N-(4-trifluoromethoxybenzyl)propylamine dihydrochloride]: 80 µM; `CC(C)(NCCCn1ccnc1)c1ccc2ccccc2c1` [Example 83, N-[1-(2-Naphthyl)-1-methylethyl]-3-(imidazol-1-yl)propylamine dihydrochloride hemihydrate]: 28 µM; `CC(C)(NCCCn1ccnc1)c1ccc(OCc2ccccc2)cc1` [Example 87, N-[1-(4-Benzyloxyphenyl)-1-methylethyl]-3-(imidazol-1-yl)propylaminedihydrochloride]: 12 µM.
As to `CC(C)(NCCCn1cnc([N+](=O)[O-])c1)c1ccc(Cl)cc1` [Example 74, N-[1-(4-Chlorophenyl)-1-methylethyl]-3-(4-nitroimidazol-1-yl)propylamine], the half-inhibitory concentration (IC50) came to 70 µM.
Still for that read-out and setting: the value for `CC(C)(NCCCCCCCCn1ccnc1)c1ccc(Cl)cc1` [Example 63, N-[1-(4-chlorophenyl)-1-methylethyl]-8-(imidazol-1-yl)octylamine] was 7 µM; that for `CCOC(=O)c1ccc(C(C)NCCCn2ccnc2)cc1` (stereo not drawn) [Example 20, Ethyl 4-{1-[3-(imidazol-1-yl)propylamino]ethyl}benzoate] was 70 µM; that for `CCOc1cc(Cl)ccc1C(C)NCCCn1ccnc1` (stereo not drawn) [Example 18, N-[1-(4-Chloro-2-ethoxyphenyl)ethyl]-3-(imidazol-1-yl)propylamine] was 50 µM.
Still for that read-out and setting: the value for `FC(F)(F)c1ccc(CNCCCn2ccnc2)cc1` [Example 37, 3-(Imidazol-1-yl)-N-(4-trifluoromethylbenzyl)propylamine dihydrochloride] was 75 µM.
Turning to `CCC(CC)(NCCCn1cnc(COC(C)=O)c1)c1ccccc1` [Example 103, 1-[3-(α,α-diethylbenzylamino)propyl]imidazol-4-ylmethyl acetate], the half-inhibitory concentration (IC50) stood at 51 µM.
Same read-out and setting: next, `CC(c1ccc(Cl)cc1)N(C)CCCn1ccnc1` (stereo not drawn) [Example 90, N-[1-(4-chlorophenyl)ethyl]-3-(imidazol-1-yl)-N-methylpropylamine]: 62 µM; `CCCOC(=O)c1ccc(CNCCCn2ccnc2C)cc1` [Example 94, propyl 4-[3-(2-methylimidazol-1-yl)propylaminomethyl]benzoate]: 20 µM; `CC(NCCCn1ccnc1)c1ccc(N(C)C)cc1` (stereo not drawn) [Example 6, N-[1-(4-Dimethylaminophenyl)ethyl]-3-(imidazol-1-yl)-propylamine]: 92 µM.
Still for that read-out and setting: the value for `CN(CCCn1ccnc1)C(C)(C)c1ccc(Cl)cc1` [Example 96, N-[1-(4-chlorophenyl)-1-methylethyl]-3-(imidazol-1-yl)-N-methylpropylamine] was 75 µM; that for `Cc1nccn1CCCN(C)Cc1ccc(Cl)cc1` [Example 97, N-(4-chlorobenzyl)-N-methyl-3-(2-methylimidazol-1-yl)propylamine] was 60 µM.
The same measure, in the same setting: the value for `CC(C)(NCCCn1cnc(CO)c1)c1ccc(Cl)cc1` [Example 79, 1-{3-[1-(4-Chlorophenyl)-1-methylethylamino]propyl}imidazol-4-yl-methanol] was 85 µM.
Regarding `CC(C)(CNCc1ccc(Cl)cc1)Cn1ccnc1` [Example 61, N-(4-chlorobenzyl)-3-(imidazol-1-yl)-2,2-dimethylpropylamine], the half-maximal inhibitory concentration (IC50) came to 70 µM.
On the same count and under the same terms, next, `COc1cc(Cl)ccc1C(C)NCCCn1ccnc1` (stereo not drawn) [Example 17, N-[1-(4-Chloro-2-methoxyphenyl)ethyl]-3-(imidazol-1-yl)propylamine]: 90 µM.
Consider `Cc1cn(CCCNCc2ccc(Cl)cc2)c(C)n1` [Example 42, N-(4-chlorobenzyl)-3-(2,4-dimethylimidazol-1-yl)propylamine dihydrochloride], for which the 50% inhibitory concentration (IC50) is 8 µM.
Turning to `CCC(CC)(NCCCn1cnc(CO)c1)c1ccccc1` [Example 86, 1-[3-(1-ethyl-1-phenylpropylamino)propyl]imidazol-4-yl-methanol], the half-inhibitory concentration (IC50) stood at 78 µM.
On the same count and under the same terms, the value for `Cc1nccn1CCCCCNCc1ccc(Cl)cc1` [Example 95, N-(4-chlorobenzyl)-5-(2-methylimidazol-1-yl)pentylamine] was 4 µM; that for `Brc1ccc(CNCCCn2ccnc2)cc1` [Example 36, N-(4-Bromobenzyl)-3-(imidazol-1-yl)propylamine] was 90 µM; that for `CC(NCCCn1ccnc1)c1cc(Cl)ccc1Cl` (stereo not drawn) [Example 15, N-[1-(2,5-Dichlorophenyl)ethyl]-3-(imidazol-1-yl)propylamine] was 72 µM.
On the same count and under the same terms, the value for `Cc1cc(C(C)NCCCn2ccnc2)ccc1Cl` (stereo not drawn) [Example 12, N-[1-(4-Chloro-3-methylphenyl)ethyl]-3-(imidazol-1-yl)propylamine] was 36 µM.

The experiment is the same for the next values; noted with them: inhibition of arachidonic acid release; six concentrations (100, 50, 20, 10, 5 and 1 μM); 5 h with zymosan; citrate; read-out: Test A IC50.
As to `CC(C)(NCCCn1ccnc1)c1ccc(Cl)cc1` [Example 99, N-[1-(4-chlorophenyl)-1-methylethyl]-3-(imidazol-1-yl)propylamine citrate], the concentration for half-maximal inhibition (IC50) was determined as 14 µM.

Still in this experiment, the particulars now being: inhibition of arachidonic acid release; six concentrations (100, 50, 20, 10, 5 and 1 μM); 5 h with zymosan; dihydrate; read-out: Test A IC50.
Take `CC(C)(NCCCn1ccnc1)c1ccc(Cl)cc1` [Example 100, N-[1-(4-chlorophenyl)-1-methylethyl]-3-(imidazol-1-yl)propylamine (+)tartrate dihydrate]: the IC50 amounted to 20 µM.

The experiment is the same for the next values; noted with them: inhibition of arachidonic acid release; six concentrations (100, 50, 20, 10, 5 and 1 μM); 5 h with zymosan; read-out: Test A IC50.
Take “A mixture of N-[1-(4-chlorophenyl)-1-methylethyl]-3-(4-methylimidazol-1-yl)propylamine and N-[1-(4-chlorophenyl)-1-methylethyl]-3-(5-methylimidazol-1-yl)propylamine [Example 69]”: the IC50 amounted to 11 µM.
